{"source": "ChEMBL document CHEMBL1137846", "about": "“Estrogen receptor ligands. Part 7: Dihydrobenzoxathiin SERAMs with bicyclic amine side chains” (Bioorg Med Chem Lett, 2004)", "key": {"MCF7": {"system": "MCF7", "experiment": "cells", "conditions": "Homo sapiens"}, "Estrogen receptor beta": {"molecular_target": "Estrogen receptor beta (Homo sapiens, UniProt Q92731)", "sequence (Q92731 whole entry)": "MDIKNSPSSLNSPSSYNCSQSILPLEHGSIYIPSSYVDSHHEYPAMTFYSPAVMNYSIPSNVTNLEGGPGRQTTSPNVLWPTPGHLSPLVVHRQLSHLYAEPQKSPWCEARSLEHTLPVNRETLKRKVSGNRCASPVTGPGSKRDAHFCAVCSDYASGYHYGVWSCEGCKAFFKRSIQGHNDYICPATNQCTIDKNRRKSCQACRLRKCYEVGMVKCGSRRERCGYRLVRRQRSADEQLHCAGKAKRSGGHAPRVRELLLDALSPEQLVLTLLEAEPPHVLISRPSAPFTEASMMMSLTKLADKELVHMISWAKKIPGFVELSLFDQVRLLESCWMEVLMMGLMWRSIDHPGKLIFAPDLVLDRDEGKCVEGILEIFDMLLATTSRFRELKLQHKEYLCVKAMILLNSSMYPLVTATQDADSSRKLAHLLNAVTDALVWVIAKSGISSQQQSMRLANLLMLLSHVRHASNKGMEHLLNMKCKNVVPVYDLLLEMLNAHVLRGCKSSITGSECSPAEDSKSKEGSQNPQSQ", "description": "Binding potency for human ER beta"}, "Estrogen receptor": {"molecular_target": "T1, Estrogen receptor (Homo sapiens, UniProt P03372)", "T1 sequence (P03372 whole entry)": "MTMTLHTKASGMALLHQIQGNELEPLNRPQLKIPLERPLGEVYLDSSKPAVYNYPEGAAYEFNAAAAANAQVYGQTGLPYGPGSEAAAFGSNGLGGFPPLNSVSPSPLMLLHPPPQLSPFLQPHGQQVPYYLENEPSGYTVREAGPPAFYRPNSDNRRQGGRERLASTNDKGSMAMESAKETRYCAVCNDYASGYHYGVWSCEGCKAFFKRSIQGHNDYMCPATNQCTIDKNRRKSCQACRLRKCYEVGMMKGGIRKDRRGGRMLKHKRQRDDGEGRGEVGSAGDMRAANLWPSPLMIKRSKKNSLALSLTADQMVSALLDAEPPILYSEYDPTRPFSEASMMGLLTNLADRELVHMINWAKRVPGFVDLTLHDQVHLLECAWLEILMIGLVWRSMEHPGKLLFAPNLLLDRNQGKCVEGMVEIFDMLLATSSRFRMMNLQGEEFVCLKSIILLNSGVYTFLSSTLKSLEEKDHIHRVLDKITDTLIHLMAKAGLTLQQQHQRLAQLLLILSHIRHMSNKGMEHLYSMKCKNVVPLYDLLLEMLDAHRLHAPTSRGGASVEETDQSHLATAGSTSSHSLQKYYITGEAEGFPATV", "description": "Binding potency for human ER alpha"}}, "data": [{"smiles": "Oc1ccc([C@H]2Sc3cc(O)ccc3O[C@H]2c2ccc(OCCN3C[C@H]4CCCC[C@H]4C3)cc2)cc1", "values": [{"measurement": "IC50", "setting": "MCF7", "value": 7.7, "unit": "nM"}, {"measurement": "IC50", "setting": "Estrogen receptor beta", "value": 33, "unit": "nM"}, {"measurement": "IC50", "setting": "Estrogen receptor", "value": 1, "unit": "nM"}]}, {"smiles": "Oc1ccc([C@H]2Sc3cc(O)ccc3O[C@H]2c2ccc(OCCN3CC[C@@H]4CC43)cc2)cc1", "note": "(single isomer, unassigned)", "values": [{"measurement": "IC50", "setting": "MCF7", "value": 0.5, "unit": "nM"}, {"measurement": "IC50", "setting": "Estrogen receptor beta", "value": 56, "unit": "nM"}]}, {"smiles": "Oc1ccc([C@H]2Sc3cc(O)ccc3O[C@H]2c2ccc(OCCN3CC[C@H]4C[C@H]43)cc2)cc1", "values": [{"measurement": "IC50", "setting": "MCF7", "value": 0.4, "unit": "nM"}, {"measurement": "IC50", "setting": "Estrogen receptor beta", "value": 33, "unit": "nM"}]}, {"smiles": "Oc1ccc([C@H]2Sc3cc(O)ccc3O[C@H]2c2ccc(OCCN3C4CCCC3CCC4)cc2)cc1", "values": [{"measurement": "IC50", "setting": "MCF7", "value": 3, "unit": "nM"}, {"measurement": "IC50", "setting": "Estrogen receptor beta", "value": 47, "unit": "nM"}, {"measurement": "IC50", "setting": "Estrogen receptor", "value": 0.6, "unit": "nM"}]}, {"smiles": "Oc1ccc([C@H]2Sc3cc(O)ccc3O[C@H]2c2ccc(OCCN3CC4CC3CO4)cc2)cc1", "note": "(some centres not stated)", "values": [{"measurement": "IC50", "setting": "MCF7", "value": 3.3, "unit": "nM"}, {"measurement": "IC50", "setting": "Estrogen receptor beta", "value": 73, "unit": "nM"}, {"measurement": "IC50", "setting": "Estrogen receptor", "value": 0.7, "unit": "nM"}]}, {"smiles": "Oc1ccc([C@H]2Sc3cc(O)ccc3O[C@H]2c2ccc(OCCN3CCC4(CCCC4)CC3)cc2)cc1", "values": [{"measurement": "IC50", "setting": "MCF7", "value": 29.8, "unit": "nM"}, {"measurement": "IC50", "setting": "Estrogen receptor beta", "value": 39, "unit": "nM"}, {"measurement": "IC50", "setting": "Estrogen receptor", "value": 1.2, "unit": "nM"}]}, {"smiles": "Oc1ccc([C@H]2Sc3cc(O)ccc3O[C@H]2c2ccc(OCCN3C4CCCC3CC4)cc2)cc1", "values": [{"measurement": "IC50", "setting": "MCF7", "value": 2.2, "unit": "nM"}, {"measurement": "IC50", "setting": "Estrogen receptor beta", "value": 51, "unit": "nM"}, {"measurement": "IC50", "setting": "Estrogen receptor", "value": 0.6, "unit": "nM"}]}, {"smiles": "Oc1ccc([C@H]2Sc3cc(O)ccc3O[C@H]2c2ccc(OCCN3C4CCC3CC4)cc2)cc1", "values": [{"measurement": "IC50", "setting": "MCF7", "value": 3.6, "unit": "nM"}, {"measurement": "IC50", "setting": "Estrogen receptor beta", "value": 118, "unit": "nM"}, {"measurement": "IC50", "setting": "Estrogen receptor", "value": 0.9, "unit": "nM"}]}, {"smiles": "Oc1ccc([C@H]2Sc3cc(O)ccc3O[C@H]2c2ccc(OCCN3CC4CCC4C3)cc2)cc1", "note": "(some centres not stated)", "values": [{"measurement": "IC50", "setting": "MCF7", "value": 2.5, "unit": "nM"}, {"measurement": "IC50", "setting": "Estrogen receptor beta", "value": 85, "unit": "nM"}, {"measurement": "IC50", "setting": "Estrogen receptor", "value": 0.8, "unit": "nM"}]}, {"smiles": "Oc1ccc([C@H]2Sc3cc(O)ccc3O[C@H]2c2ccc(OCCN3C[C@H]4CCC[C@H]4C3)cc2)cc1", "values": [{"measurement": "IC50", "setting": "MCF7", "value": 1.3, "unit": "nM"}, {"measurement": "IC50", "setting": "Estrogen receptor beta", "value": 18, "unit": "nM"}, {"measurement": "IC50", "setting": "Estrogen receptor", "value": 0.3, "unit": "nM"}]}, {"smiles": "Oc1ccc([C@H]2Sc3cc(O)ccc3O[C@H]2c2ccc(OCCN3CC4CCC3CC4)cc2)cc1", "values": [{"measurement": "IC50", "setting": "MCF7", "value": 1.6, "unit": "nM"}, {"measurement": "IC50", "setting": "Estrogen receptor beta", "value": 52, "unit": "nM"}, {"measurement": "IC50", "setting": "Estrogen receptor", "value": 1.3, "unit": "nM"}]}, {"smiles": "Oc1ccc([C@H]2Sc3cc(O)ccc3O[C@H]2c2ccc(OCCN3CC4(CCC4)C3)cc2)cc1", "values": [{"measurement": "IC50", "setting": "MCF7", "value": 0.3, "unit": "nM"}, {"measurement": "IC50", "setting": "Estrogen receptor beta", "value": 26, "unit": "nM"}, {"measurement": "IC50", "setting": "Estrogen receptor", "value": 0.4, "unit": "nM"}]}, {"smiles": "Oc1ccc([C@H]2Sc3cc(O)ccc3O[C@H]2c2ccc(OCCN3CC4CC5CC(C4)CC3C5)cc2)cc1", "values": [{"measurement": "IC50", "setting": "MCF7", "value": 5.8, "unit": "nM"}, {"measurement": "IC50", "setting": "Estrogen receptor beta", "value": 40, "unit": "nM"}, {"measurement": "IC50", "setting": "Estrogen receptor", "value": 0.6, "unit": "nM"}]}]}
